The source of these data is patent publication US20230390296A1, “NOVEL TREATMENT AND PREVENTION OF SARCOPENIA-RELATED DISEASES” (KEIO UNIVERSITY, priority 2020, published 2023).

Assay [1] relates to sarcopenia mouse models. Kind of assay: Brain function behavioral tests (Barnes maze, fear conditioning, object recognition, open field, social behavior). Format: in vivo. Particulars: administered versus non-administered sarcopenia mouse models. As for the experimental part:
Mouse models were divided into two groups. Short term memory, long term memory, depression, activity level, social interaction, cognitive ability, etc., were tested using a Barnes maze, fear conditioning test, object recognition test, open field test, social behavior test (Crawley version), etc. on sarcopenia mouse models administered with OK-1 and sarcopenia mouse models without administration of OK-1.
These tests are described in http://www.fujita-hu.ac.jp/ to smedsci/behaviorcore/equipment/index.html, Barnes maze, a useful task to assess spatial reference memory in the mice (doi: 10.1038/nprot.2007.390), etc., which can be suitably referenced and practiced.
Mouse models were divided into two groups. Short term memory, long term memory, depression, activity level, social interaction, cognitive ability, etc., were tested using a Barnes maze, fear conditioning test, object recognition test, open field test, social behavior test (Crawley version), etc. on sarcopenia mouse models administered with C-82 and sarcopenia mouse models without administration of C-82.
These tests are described in http://www.fujita-hu.ac.jp/to smedsci/behaviorcore/equipment/index.html, Barnes maze, a useful task to assess spatial reference memory in the mice (doi: 10.1038/nprot.2007.390), etc., which can be suitably referenced and practiced.

The test system of assay [2] is sarcopenia mouse models. As to the kind of experiment: Cardiac function test (echocardiogram and treadmill). It counts as in vivo. As to conditions: administered versus non-administered sarcopenia mouse models. As for the experimental part: This Example used mouse models prepared in the Preparation Example.
Measurement can be taken using Kumamoto Mouse Clinic (KMC) of Kumamoto University.
Mouse models were divided into two groups. Cardiac function was tested for sarcopenia mouse models administered with OK-1 and sarcopenia mouse models without administration of OK-1. Cardiac function was tested and analyzed using an echocardiogram and treadmill.
Mouse models were divided into two groups. Cardiac function was tested for sarcopenia mouse models administered with C-82 and sarcopenia mouse models without administration of C-82. Cardiac function was tested and analyzed using an echocardiogram and treadmill.

Assay [3] has as its system old mice (C57BL/6J). Kind of assay: Treadmill test of muscle strength (endurance) in young and old mice. It counts as in vivo, mouse. An excerpt: Decrease in endurance in old mice In order to confirm that a decrease in muscle strength is observed in mouse models (C57BL/6J) (purchased from Oriental Yeast), the muscle strength (endurance) in 15-week old young mice and 79-week-old old mice was investigated in a treadmill test in accordance with the following (FIG. 1A). Prior to recording the performance, mice were trained for 3 days to acclimate the mice to the equipment. Electric stimulation grid was adjusted to 1 mA, and the gradient was set to 15 degrees. On the first day of training, mice were induced to walk for 10 minutes at a rate of 10 m/minute, allowed to rest for 10 minutes, and then induced to walk for 10 minutes at a rate of 10 m/minute on a treadmill. On day 2 and day 3, the first two steps were the under the same conditions as day 1, and then the mice were induced to start walking at 10 m/minute. The speed was increased by 1 m/minute until reaching the maximum speed of 20 m/minute. On day 4, the maximum exercise endurance was measured. Six mice were placed on a treadmill, which was started at a belt speed of 5 m/minute for 5 minutes to let the mice warm up. The speed was increased 1 m/minute until reaching the maximum speed of 20 m/minute. After making the mice run for 5 minutes, the speed was increased from 20 m/minute to 21 m/minute for 10 minutes. The mice were then forced to run at 22 m/minute until stalling on the electric stimulation grid for 10 seconds. The distance traveled until stalling for 10 seconds was measured.
OK-1 manufactured in Manufacturing Example 1 was intraperitoneally administered to young and old mice twice a week over three months. The dosage was 20 mg/kg/day.
74-week old mice (C57B16/J) were purchased from Oriental Yeast. […] Muscle strength (endurance) and grip strength of mice administered with C-82 were then measured through a treadmill test and smart grip strength meter for rats and mice (Muromachi Kikai Co., Ltd.), respectively. […]

For assay [4], the system named is muscle of mice with/without exercise. Kind of assay: Collation of top 100 differentially expressed muscle genes with NIH MedlinePlus (related diseases). Further details: species or system mouse. From the text: Diseases associated with top 100 genes observed to have differential expression in mice with/without exercise were found by collation with NIH MedlinePlus (FIG. 8).

Assay [5] relates to sarcopenia mouse models. As to the kind of experiment: Biochemical test on organ (creatine, IL-6, cholesterol etc. concentrations). It counts as in vivo. Particulars: administered versus non-administered sarcopenia mouse models. Here is the method:
Mouse models were divided into two groups. The creatine concentration, IL-6 concentration, and cholesterol concentration were measured for sarcopenia mouse models administered with OK-1 and sarcopenia mouse models without administration of OK-1.
Mouse models were divided into two groups. The creatine concentration, IL-6 concentration, cholesterol concentration, UN (urea nitrogen is a biomarker that can predict the dysfunction of kidney or urinary system) concentration, and UA (uric acid is a biomarker for kidney or liver function) concentration were measured for sarcopenia mouse models administered with C-82 and sarcopenia mouse models without administration of C-82.

The subject of assay [6] is C2C12 cells. Kind of assay: Gene expression levels in treated cultured cells. Format: cell-based, mouse. As for the experimental part: Mouse striated muscle derived cells, i.e., C2C12 cells, were cultured and treated with OK-1, ICG-001, or C-82. Gene expression levels of cells treated with OK-1, ICG-001, or C-82, and untreated cells are compared.
For assay [7], the system named is sarcopenia mouse models. As to the kind of experiment: Metabolic disease markers (LDH, ALT, TG, HDL-C, insulin, glucose, amylase, AST concentrations). It counts as in vivo. Particulars: administered versus non-administered sarcopenia mouse models. As for the experimental part:
Mouse models were divided into two groups. LDH concentration, ALT concentration, TG concentration, HDL-C concentration, insulin concentration, glucose concentration, amylase concentration, AST concentration, and ALT concentration were measured for sarcopenia mouse models administered with OK-1 and sarcopenia mouse models without administration of OK-1.
Mouse models were divided into two groups. LDH concentration, ALT concentration, TG concentration, HDL-C concentration, insulin concentration, glucose concentration, amylase concentration, AST concentration, and ALT concentration were measured for sarcopenia mouse models administered with C-82 and sarcopenia mouse models without administration of C-82.

Assay [8] relates to sarcopenia mouse models. As to the kind of experiment: NTX (cross linked N-telopeptide of type I collagen) concentration. It counts as in vivo. As to conditions: administered versus non-administered sarcopenia mouse models. Here is the method: Mouse models were divided into two groups. The NTX (cross linked N-telopeptide of type I collagen) concentration was measured for sarcopenia mouse models administered with OK-1 and sarcopenia mouse models without administration of OK-1.
Mouse models were divided into two groups. The NTX (cross linked N-telopeptide of type I collagen) concentration was measured for sarcopenia mouse models administered with C-82 and sarcopenia mouse models without administration of C-82.

Assay [9] has as its system muscle of mice (C57BL/6J) with exercise. Kind of assay: Gene analysis (RNA-seq, GSEA) of muscle of administered mice with exercise. It counts as in vivo, mouse. As for the experimental part:
Gene analysis (RNA-seq) in OK-1 administered mice (C57BL/6J) with exercise was performed by the same method as Example 2.
The category of genes with differential expression identified in Example 5 was analyzed by the same method (GSEA) as Example 3 (FIG. 6).

Entries after “also recorded” stand apart in the source; their conditions may differ.

For the compound `C[C@H]1[C@H]2N(C(=O)CN(C)N2C(=O)NCc2ccccc2)[C@@H](Cc2ccc(O)cc2)C(=O)N1Cc1cccc2cccnc12` [C-82, (6S,9S)—N-benzyl-6-(4-hydroxybenzyl)-2,9-dimethyl-4,7-dioxo-8-(quinolin-8-ylmethyl)hexahydro-2H-pyrazino[2,1-c][1,2,4]triazine-1(6H)-carboxamide], in assay [1], the “short term memory, long term memory, depression, activity level, social interaction, cognitive ability” value was “short term memory, long term memory, depression, activity level, social interaction, and cognitive ability are improved”. Moreover, the cardiac function entry in assay [2] was “cardiac function is improved”. In addition, in [3] (74-week old mice, 7 mg/kg and 20 mg/kg intraperitoneal twice a week for 6 weeks, versus no administration), the “muscle strength (endurance) through a treadmill test” value is “significant increase in muscle strength (endurance); also recorded: increased significantly”. In addition, the “diseases associated with the top 100 differentially expressed genes” value in assay [4] (C-82 administration, mice with/without exercise) was “achieves the same result as OK-1”. Further, the “kidney function and muscle (from creatine, IL-6, cholesterol, UN and UA concentrations)” value in [5] was “kidney function and muscle improve”. For the same compound, the “gene expression levels versus untreated cells” value in [6] is listed as “change in gene expression similar to Example 2”. In addition, in assay [7], the “pancreatic function, liver function and salivary gland function” value was “pancreatic function, liver function, and salivary gland function are improved”. Also, in assay [8], the “osteoporosis (from NTX concentration)” value is given as “osteoporosis is improved”. For the same compound, the “change in gene expression in muscles” value in assay [9] (C-82 administration, same method as Example 2) is “achieves the same result as OK-1”.

For the compound `C[C@H]1[C@H]2N(C(=O)CN(C)N2C(=O)NCc2ccccc2)[C@@H](Cc2ccc(OP(=O)(O)O)cc2)C(=O)N1Cc1cccc2cccnc12` [OK-1], the “short term memory, long term memory, depression, activity level, social interaction, cognitive ability” value in assay [1] is “short term memory, long term memory, depression, activity level, social interaction, and cognitive ability are improved”. Besides, the cardiac function entry in assay [2] is “cardiac function is improved”. In addition, in assay [3] (intraperitoneal, twice a week over three months, 20 mg/kg/day, young (15-week) and old (79-week) mice), the “muscle strength (endurance) through a treadmill test” value is recorded as “increase in muscle strength due to OK-1 administration, which is specific to old mice”. The “gene group associated with OK-1: genes with change in muscle control with/without exercise, disease-associated” value in [4] (top 100 genes) was “Dsp, Krt17, Comp, Krt86, Krt81, Krt83, Krt14, Abca12, Tchh, Krt5, Dsg4, Lpl, Myh6, Tfap2a, Col1a1, Lepr, Fn1, Col1a2, Col6a1, Col3a1, Mmp2, Acta2, F13a1, Col6a2, and Cx3cr1”. Also, the “muscle (from creatine, IL-6 and cholesterol concentrations)” value in assay [5] is “muscle improves”. In assay [6], the “gene expression levels versus untreated cells” value is “change in gene expression similar to Example 2”. The “pancreatic function, liver function and salivary gland function” value in assay [7] was “pancreatic function, liver function, and salivary gland function are improved”. For the same compound, the “osteoporosis (from NTX concentration)” value in assay [8] is reported as “osteoporosis is improved”. Moreover, the “gene group associated with OK-1 by GSEA: genes regulating muscle genes with exercise” value in assay [9] (GSEA) is “ETS2, ETS1, EP300, RUNX2, SMAD3, SMAD4, E2F1, NOTCH1, TRP53, PAX6, SMAD1, SP1, SPI1, and NFKB1”. Besides, in [9] (OK-1 administration, p<0.05), the “genes decreased (downregulated expression) significantly in muscle” value amounted to 631 genes and the “genes increased (upregulated expression) significantly in muscle” value was 145 genes. In assay [9] (upstream transcription factors), the “gene group associated with OK-1: genes associated with muscle control with exercise” value is “Jun, Ets1, Sp1, Ep300, Usf2, Fosl1, Nfkb1, Smad3, Srf, Junb, Runx2, Ets2, Etv4, Tgfb1, and Tgfb1i1”.
